Reference: patent US8163909B2, “Substituted hydroxyethyl amine compounds as beta-secretase modulators and methods of use” (Amgen Inc., priority 2007, dated 2012)
Where two headings read alike, the source gives them in different places.

Legend:
[1] = target: Beta Secretase enzyme (BACE) (Homo sapiens, UniProt P56817); assay: In vitro enzymatic BACE FRET (fluorescence resonance energy transfer) assay; assay type: biochemical;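 further: fluorescence read after 1 h with 50 nM quenched peptide substrate spanning the BACE cleavage site, in pH 4.2 acetate buffer containing 10% DMSO and nonionic detergent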
[2] = test system: Aβ40 in conditioned medium of cells stably expressing Amyloid Precursor Protein (APP); assay: In vitro BACE cell-based assay (Aβ40 in conditioned medium, sandwich ELISA);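 further: compounds added as a dilution series, secreted peptide quantified by europium time-resolved fluorescence readout, potency fitted from percent of control versus compound concentration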
[3] = BACE enzyme FRET assay, read-out: BACE1 FRET assay (IC50)
[4] = BACE enzyme assay, read-out: BACE1 FRET assay (IC50)
[5] = Homo sapiens, HEK293, HEK cells, cell-based assay, read-out: HEK cell assay (IC50)

Beta Secretase enzyme (BACE), sequence (P56817 46-501): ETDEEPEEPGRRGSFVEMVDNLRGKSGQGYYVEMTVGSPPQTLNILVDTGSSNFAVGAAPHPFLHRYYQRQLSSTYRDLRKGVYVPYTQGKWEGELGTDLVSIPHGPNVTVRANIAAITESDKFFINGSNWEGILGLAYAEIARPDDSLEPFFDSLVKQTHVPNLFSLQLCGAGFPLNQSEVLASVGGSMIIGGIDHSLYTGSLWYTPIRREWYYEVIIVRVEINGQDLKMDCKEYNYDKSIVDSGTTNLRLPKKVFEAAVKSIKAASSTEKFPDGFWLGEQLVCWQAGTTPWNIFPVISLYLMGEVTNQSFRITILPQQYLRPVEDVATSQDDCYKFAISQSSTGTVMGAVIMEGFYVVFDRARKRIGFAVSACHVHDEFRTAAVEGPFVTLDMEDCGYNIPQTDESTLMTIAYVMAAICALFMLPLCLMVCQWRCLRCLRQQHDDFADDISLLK

| SMILES | IC50 [1, 3] [µM] | IC50 [1, 4] [µM] | IC50 [2, 5] [µM] | further results |
| --- | --- | --- | --- | --- |
| COC(C)C(=O)NC(Cc1ccc2c(c1)OCO2)C(O)CNC1CC2(CC(O)C2)Oc2ccc(CC(C)(C)C)cc21 [compound 269, (2R)—N-((1S,2R)-1-(1,3-benzodioxol-5-ylmethyl)-3-(((2r,3′R,4S)-6-(2,2-dimethylpropyl)-3′-hydroxy-3,4-dihydrospiro[chromene-2,1′-cyclobutan]-4-yl)amino)-2-hydroxypropyl)-2-(methyloxy)propanamide] | 0.242 |  |  | IC50 ([2]; HEK cells, cell-based assay, read-out: HEK cell assay (IC50)): 0.103 µM |
| CC(=O)N[C@@H](Cc1cccc(F)c1)[C@H](O)CN[C@H]1CC2(CCC2)Oc2ncc(OC(C)(F)F)cc21 [compound 151, N-((1S,2R)-3-(((4′S)-6′-((1,1-difluoroethyl)oxy)-3′,4′-dihydrospiro[cyclobutane-1,2′-pyrano[2,3-b]pyridin]-4′-yl)amino)-1-((3-fluorophenyl)methyl)-2-hydroxypropyl)acetamide] |  | 0.0205 | 0.0841 |  |
| C=Cc1cccc(C[C@H](NC(=O)COC)[C@H](O)CN[C@H]2CC3(CCC3)Oc3ncc(CC(C)C)cc32)c1 [compound 832] |  |  |  | IC50 ([1]; BACE enzyme assay, IC50's in uM, read-out: BACE1 FRET assay): 0.007 µM; IC50 ([2]; Homo sapiens, HEK293, HEK cell-based assay, IC50's in uM, read-out: HEK cell assay): 0.038 µM |
| CC(=O)N[C@@H](Cc1ccc(F)cc1)[C@H](O)CN[C@H]1CC2(CCC2)Oc2ncc(C[C@@H](C)C(F)F)cc21 [compound 199] | 0.0452 |  | 0.0591 |  |
| CC(C)(C)Cc1cnc2c(c1)[C@@H](NC[C@@H](O)[C@H](Cc1ccc3c(c1)OCO3)NC(=O)CCl)CC1(CCC1)O2 [compound 309] | 0.0206 |  | 0.04 |  |
| CC(=O)NC(Cc1ccc(F)cc1)C(O)CNC1CC2(CC(C(=O)O)C2)Oc2ncc(CC(C)(C)C)cc21 [compound 263, (1s,3R,4′S)-4′-(((2R,3S)-3-(acetylamino)-4-(4-fluorophenyl)-2-hydroxybutyl)amino)-6′-(2,2-dimethylpropyl)-3′,4′-dihydrospiro[cyclobutane-1,2′-pyrano[2,3-b]pyridine]-3-carboxylic acid] | 0.0107 |  | 0.976 |  |
| CC(C)(C)[C@@H](F)c1cnc2c(c1)[C@@H](NC[C@@H](O)[C@H](Cc1ccc3c(c1)OCO3)NC(=O)CF)CC1(CCC1)O2 [compound 185] |  | 0.0185 | 0.0264 |  |
| COCC(=O)N[C@@H](Cc1ccc2c(c1)OCO2)[C@H](O)CN[C@H]1CC2(CCC2)Oc2c1cc(CC(C)(C)C)nc2N [compound 129] |  | 0.119 | 0.0309 |  |
| COCC(=O)N[C@@H](Cc1ccc2c(c1)OCO2)[C@H](O)CN[C@H]1CC2(CC(F)(F)C2)Oc2ncc(CC(C)(C)C)cc21 [compound 52] |  | 0.042 | 0.103 |  |
| COCC(=O)N[C@@H](Cc1ccccc1)[C@H](O)CNC1CC2(CC(F)(F)C2)Oc2ncc(CC(C)(C)C)cc21 (stereo partly shown) [compound 54] |  | 0.003 | 0.066 |  |

The next lines start with results.

| IC50 [1, 3] [µM] | IC50 [1, 4] [µM] | IC50 [2, 5] [µM] | SMILES | further results |
| --- | --- | --- | --- | --- |
|  | 0.0485 | 0.016 | CC(=O)N[C@@H](Cc1ccc2c(c1)OCO2)[C@H](O)CN[C@H]1CC2(CCC2)Oc2ncc(CC(C)(C)C#N)cc21 [compound 88] |  |
|  | 0.00263 | 0.00305 | CO[C@H](C)C(=O)N[C@@H](Cc1cccc(C#N)c1)[C@H](O)CN[C@H]1CC2(CCC2)Oc2ncc(CC(C)(C)C)cc21 [compound 56] |  |
|  | 0.00325 | 0.00621 | COCC(=O)N[C@@H](Cc1cc(F)cc(F)c1)[C@H](O)CN[C@H]1CC2(CCC2)Oc2ncc(CC(C)(C)C#N)cc21 [compound 92] |  |
| 0.00438 |  | 0.00525 | COCC(=O)N[C@@H](Cc1cccc(F)c1)[C@H](O)CN[C@H]1CC2(CCC2)Oc2ncc(CC(C)(C)C(F)F)cc21 [compound 218] |  |
| 0.0122 |  | 0.0181 | CO[C@H](C)C(=O)N[C@@H](Cc1cc(Cl)c2c(c1)OCO2)[C@H](O)CN[C@H]1CC2(CCC2)Oc2ncc(CC(C)(C)C)cc21 [compound 209] |  |
| 0.00428 |  | 0.00747 | CC(=O)N[C@@H](Cc1cc(F)c2c(c1)OCO2)[C@H](O)CN[C@H]1CC2(CCC2)Oc2ncc(CC(C)(C)C)cc21 [compound 306] |  |
| 0.00613 |  | 0.00936 | CC(=O)N[C@@H](Cc1cccc(F)c1)[C@H](O)CN[C@H]1CC2(CCC2)Oc2ncc(CC(C)(F)F)cc21 [compound 277] |  |
